Data from paper PMC9304322, “Targeting retinoic acid receptor alpha-corepressor interaction activates chaperone-mediated autophagy and protects against retinal degeneration” (Nature Communications, 2022).

System: NIH3T3 cells
Assay: Microarray transcriptional changes
Type: cell-based, mouse
Parameters: Ratio of expression relative to untreated cells, Crtam (NM_019465) / Ratio of expression relative to untreated cells, 4930594C11Rik (NR_024017) / Ratio of expression relative to untreated cells, Non-coding chr6:36765550-36793825_F / Ratio of expression relative to untreated cells, Anti-sense ENSMUST00000097448 / Ratio of expression relative to untreated cells, Non-coding chr1:64232564-64349617_R / Ratio of expression relative to untreated cells, Foxa2 (NM_010446) / Ratio of expression relative to untreated cells, Non-coding chr15:83266264-83294664_F / Ratio of expression relative to untreated cells, Nqo1 (NM_008706) / Ratio of expression relative to untreated cells, Gsta4 (NM_010357) / Ratio of expression relative to untreated cells, E330014E10Rik (NM_001122668) / Ratio of expression relative to untreated cells, AU017674 (CK334688) / Ratio of expression relative to untreated cells, Defb12 (NM_152802) / Ratio of expression relative to untreated cells, Non-coding chr1:138570107-138632310_F / Ratio of expression relative to untreated cells, Non-coding chr16:39984031-40081556_R / Ratio of expression relative to untreated cells, Gm5106 (XR_168418) / Ratio of expression relative to untreated cells, Ushbp1 (NM_181418) / Ratio of expression relative to untreated cells, Non-coding chr11:70196232-70203307_R / Ratio of expression relative to untreated cells, Eno4 (NM_178689) / Ratio of expression relative to untreated cells, Non-coding chr13:64044376-64045368_R / Ratio of expression relative to untreated cells, Dsg4 (AY170623) / Ratio of expression relative to untreated cells, Stx2 (NM_007941) / Ratio of expression relative to untreated cells, Non-coding chr12:52944867-52971992_R / Ratio of expression relative to untreated cells, Htr1b (NM_010482) / Ratio of expression relative to untreated cells, Non-coding chr16:44717531-44724206_F / Ratio of expression relative to untreated cells, Non-coding chr5:54053328-54053870_F: unit not given here
Conditions: 20μM for 24 h; for Ratio of expression relative to untreated cells, 4930594C11Rik (NR_024017) / Ratio of expression relative to untreated cells, Anti-sense ENSMUST00000097448 / Ratio of expression relative to untreated cells, Crtam (NM_019465) / Ratio of expression relative to untreated cells, Defb12 (NM_152802) / Ratio of expression relative to untreated cells, Dsg4 (AY170623) / Ratio of expression relative to untreated cells, Eno4 (NM_178689) / Ratio of expression relative to untreated cells, Foxa2 (NM_010446) / Ratio of expression relative to untreated cells, Gm5106 (XR_168418) / Ratio of expression relative to untreated cells, Htr1b (NM_010482) / Ratio of expression relative to untreated cells, Non-coding chr1:64232564-64349617_R / Ratio of expression relative to untreated cells, Non-coding chr5:54053328-54053870_F / Ratio of expression relative to untreated cells, Non-coding chr6:36765550-36793825_F / Ratio of expression relative to untreated cells, Non-coding chr11:70196232-70203307_R / Ratio of expression relative to untreated cells, Non-coding chr12:52944867-52971992_R / Ratio of expression relative to untreated cells, Non-coding chr13:64044376-64045368_R / Ratio of expression relative to untreated cells, Non-coding chr15:83266264-83294664_F / Ratio of expression relative to untreated cells, Non-coding chr16:39984031-40081556_R / Ratio of expression relative to untreated cells, Non-coding chr16:44717531-44724206_F / Ratio of expression relative to untreated cells, Ushbp1 (NM_181418) / Ratio of expression relative to untreated cells, AU017674 (CK334688) / Ratio of expression relative to untreated cells, E330014E10Rik (NM_001122668) / Ratio of expression relative to untreated cells, Gsta4 (NM_010357) / Ratio of expression relative to untreated cells, Non-coding chr1:138570107-138632310_F / Ratio of expression relative to untreated cells, Nqo1 (NM_008706): NIH3T3; for Ratio of expression relative to untreated cells, 4930594C11Rik (NR_024017) / Ratio of expression relative to untreated cells, Anti-sense ENSMUST00000097448 / Ratio of expression relative to untreated cells, Crtam (NM_019465) / Ratio of expression relative to untreated cells, Defb12 (NM_152802) / Ratio of expression relative to untreated cells, Dsg4 (AY170623) / Ratio of expression relative to untreated cells, Eno4 (NM_178689) / Ratio of expression relative to untreated cells, Foxa2 (NM_010446) / Ratio of expression relative to untreated cells, Gm5106 (XR_168418) / Ratio of expression relative to untreated cells, Htr1b (NM_010482) / Ratio of expression relative to untreated cells, Non-coding chr1:64232564-64349617_R / Ratio of expression relative to untreated cells, Non-coding chr5:54053328-54053870_F / Ratio of expression relative to untreated cells, Non-coding chr6:36765550-36793825_F / Ratio of expression relative to untreated cells, Non-coding chr11:70196232-70203307_R / Ratio of expression relative to untreated cells, Non-coding chr12:52944867-52971992_R / Ratio of expression relative to untreated cells, Non-coding chr13:64044376-64045368_R / Ratio of expression relative to untreated cells, Non-coding chr15:83266264-83294664_F / Ratio of expression relative to untreated cells, Non-coding chr16:39984031-40081556_R / Ratio of expression relative to untreated cells, Non-coding chr16:44717531-44724206_F / Ratio of expression relative to untreated cells, Ushbp1 (NM_181418): direction Down; for Ratio of expression relative to untreated cells, AU017674 (CK334688) / Ratio of expression relative to untreated cells, E330014E10Rik (NM_001122668) / Ratio of expression relative to untreated cells, Gsta4 (NM_010357) / Ratio of expression relative to untreated cells, Non-coding chr1:138570107-138632310_F / Ratio of expression relative to untreated cells, Nqo1 (NM_008706): direction Up
Method: Total RNA of the treated cells was extracted using TRIzol (Invitrogen) and purified with RNeasy chromatography (Qiagen). Cy3-labeled RNA (0.6 μg) from each condition was hybridized to Agilent Mouse 8x60K. Data were processed using the oligo package and normalized using Robust Multiarray Average (RMA) method. […] Pathway analysis was performed using the STRING database ([…]).

| SMILES | Ratio of expression relative to untreated cells, Stx2 (NM_007941) | Ratio of expression relative to untreated cells, 4930594C11Rik (NR_024017) | Ratio of expression relative to untreated cells, Anti-sense ENSMUST00000097448 | Ratio of expression relative to untreated cells, Crtam (NM_019465) | Ratio of expression relative to untreated cells, Defb12 (NM_152802) | Ratio of expression relative to untreated cells, Dsg4 (AY170623) | Ratio of expression relative to untreated cells, Eno4 (NM_178689) | Ratio of expression relative to untreated cells, Foxa2 (NM_010446) | Ratio of expression relative to untreated cells, Gm5106 (XR_168418) | Ratio of expression relative to untreated cells, Htr1b (NM_010482) | Ratio of expression relative to untreated cells, Non-coding chr1:64232564-64349617_R | Ratio of expression relative to untreated cells, Non-coding chr5:54053328-54053870_F | Ratio of expression relative to untreated cells, Non-coding chr6:36765550-36793825_F | Ratio of expression relative to untreated cells, Non-coding chr11:70196232-70203307_R | Ratio of expression relative to untreated cells, Non-coding chr12:52944867-52971992_R | Ratio of expression relative to untreated cells, Non-coding chr13:64044376-64045368_R | Ratio of expression relative to untreated cells, Non-coding chr15:83266264-83294664_F | Ratio of expression relative to untreated cells, Non-coding chr16:39984031-40081556_R | Ratio of expression relative to untreated cells, Non-coding chr16:44717531-44724206_F | Ratio of expression relative to untreated cells, Ushbp1 (NM_181418) | also measured |
| --- | --- | --- | --- | --- | --- | --- | --- | --- | --- | --- | --- | --- | --- | --- | --- | --- | --- | --- | --- | --- | --- |
| CC(=O)Nc1ccc(C2=Nc3ccc(Cl)cc3OC2)cc1 [CA77] | 0.09232 | 0.0118 | 0.02606 | 0.02383 | 0.01656 | 0.02136 | 0.2317 | 0.03773 | 0.09934 | 0.04553 | 0.03926 | 0.08612 | 0.01829 | 0.1429 | 0.03376 | 0.1362 | 0.06682 | 0.07815 | 0.03891 | 0.1648 | Ratio of expression relative to untreated cells, AU017674 (CK334688): 22.5451; Ratio of expression relative to untreated cells, E330014E10Rik (NM_001122668): 33.8974; Ratio of expression relative to untreated cells, Gsta4 (NM_010357): 18.7705; Ratio of expression relative to untreated cells, Non-coding chr1:138570107-138632310_F: 6.319; Ratio of expression relative to untreated cells, Nqo1 (NM_008706): 4.968 |
| Clc1ccc2c(c1)OCC(c1ccc(-c3ccccc3)cc1)=N2 [CA39] | 0.118 | 0.02758 | 0.03251 | 0.02443 | 0.01369 | 0.04187 | 0.1079 | 0.05303 | 0.2892 | 0.02191 | 0.044 | 0.08567 | 0.01728 | 0.1333 | 0.02965 | 0.157 | 0.07415 | 0.3908 | 0.01733 | 0.1898 | Ratio of expression relative to untreated cells, AU017674 (CK334688): 18.0101; Ratio of expression relative to untreated cells, E330014E10Rik (NM_001122668): 1.584; Ratio of expression relative to untreated cells, Gsta4 (NM_010357): 2.331; Ratio of expression relative to untreated cells, Non-coding chr1:138570107-138632310_F: 7.863; Ratio of expression relative to untreated cells, Nqo1 (NM_008706): 1.3 |
